Experimental findings from patent US11865103B2, “Methods of treating disorders associated with glycosylation defective proteins” (CASE WESTERN RESERVE UNIVERSITY, priority 2016, dated 2024) are described below.

The subject of the assay is hCLRN1^N48K-YFP; clrn1^KO/KO larvae. The assay is described as follows: Survival rate of hCLRN1^N48K-YFP; clrn1^KO/KO zebrafish larvae under ART treatment, 6.5 to 27 dpf. It counts as in vivo. The settings on record: for Survival rate and swimming behavior beyond 25 dpf: untreated 5%. On the procedure:
The startle response and swimming behavior of the clrn1^+/+ larvae, clrn1^KO/KO larvae, hCLRN1-YFP; clrn1^KO/KO larvae and hCLRN1^N48K-YFP; clrn1^KO/KO larvae were recorded at 6.5dpf, 10.5dpf, 16.5dpf and 27dpf as described earlier (Table-1). The extracellular microphonics potentials were recorded at 6dpf to confirm the hair cell function in these humanized zebrafish models for hCLRN1 (hCLRN1-YFP; clrn1^KO/KO larvae larvae) and USH3-CLRN1^N48Kmutant (hCLRN1^N48K-YFP; clrn1^KO/KO larvae) as described earlier (FIG. 5).
To verify the degree of overall rescue in swimming behavior (hair cell function) and prolongation of life span by ART treatment in the hCLRN1^N48K-YFP; clrn1^KO/KO zebrafish larvae, survival rate, swimming behavior and startle response were observed longitudinally from 6.5 to 27 dpf (Table 1). For this rescue experiment, we followed two regimens of ART treatment. Regimen I, 35 larvae from hCLRN1^N48K-YFP; clrn1^KO/KO genotype were treated with 0.4 uM ART from 3 to 7 dpf (5 days of treatment during inner ear development and hair cell maturation). Regimen II, 20 larvae from hCLRN1^N48K-YFP; clrn1^KO/KO genotype were treated with 0.4 uM ART from 3 to 12 dpf (10 days of treatment overlapping development and post-development of inner ear anatomy and hair cell maturation). At 6.5 dpf, the swimming behavior and startle response of hCLRN1^N48K-YFP; clrn1^KO/KO larvae from ART treatment regimen I and II, were indistinguishable from that of clrn1^+/+ and hCLRN1-YFP; clrn1^KO/KO larvae. About 75% (Regimen I+II: 41 larvae) of ART treated hCLRN1^N48K-YFP; clrn1^KO/KO larvae had clrn1^+/+ equivalent startle response. In regimen I and II, the survival rate and swimming behavior of hCLRN1^N48K-YFP; clrn1^KO/KO larvae beyond 25 dpf shown significant improvement from 5% in untreated hCLRN1^N48K-YFP; clrn1^KO/KO larvae to 40% (n=14) and 45% (n=[…]), respectively. […] Overall, result confirms that ART is not only able to correct the trafficking defect of hCLRN1^N48K protein, but also able to help in normal hair cell functioning of hair cells from hCLRN1^N48K-YFP; clrn1^KO/KO zebrafish and delay onset progressive loss of hair cell function.

The mark [1] stands for this setting: Regimen I: 0.4 μM ART from 3 to 7 dpf, 6.5 dpf.
Setting [2] is: Regimen I: 0.4 μM ART from 3 to 7 dpf, 10.5 dpf.
[3] abbreviates: Regimen I: 0.4 μM ART from 3 to 7 dpf, 15 dpf.
Setting [4] is: Regimen I: 0.4 μM ART from 3 to 7 dpf, 16.5 dpf.
Where [5] appears, read: Regimen I: 0.4 μM ART from 3 to 7 dpf, 27 dpf.
Setting [6] is: Regimen II: 0.4 μM ART from 3 to 12 dpf, 6.5 dpf.
Where [7] appears, read: Regimen II: 0.4 μM ART from 3 to 12 dpf, 10.5 dpf.
Where [8] appears, read: Regimen II: 0.4 μM ART from 3 to 12 dpf, 15 dpf.
The mark [9] stands for this setting: Regimen II: 0.4 μM ART from 3 to 12 dpf, 16.5 dpf.
[10] abbreviates: Regimen II: 0.4 μM ART from 3 to 12 dpf, 27 dpf.

Regarding `C[C@@H]1CC[C@H]2[C@@H](C)C(=O)O[C@@H]3O[C@@]4(C)CC[C@@H]1[C@]32OO4` [ART, Artemisinin], the Survival rate result is, setting by setting: under setting [1], “(100%)”; under setting [2], “(85.71%)”; under setting [3], “(68.57%)”; under setting [4], “(54.29%)”; under setting [5], “(40%)”; under setting [6], “(100%)”. Besides, the Survival rate entry is listed as “(90%)” under setting [7], “(65%)” under setting [8], “(65%)” under setting [9] and “(45%)” under setting [10]. In addition, the “Survival rate, number of surviving larvae” value (“Survival rate, number” below) under setting [1] was determined as 35; the “Survival rate, number” value under setting [2] is listed as 30; the “Survival rate, number” value under setting [3] amounted to 24; the “Survival rate, number” value under setting [4] was determined as 19; the “Survival rate, number” value under setting [5] is reported as 14; the “Survival rate, number” value under setting [6] worked out at 20. Moreover, the “Survival rate, number” value under setting [7] is 18; the “Survival rate, number” value under setting [8] came to 13; the “Survival rate, number” value under setting [9] is listed as 13; the “Survival rate, number” value under setting [10] was determined as 9. The “Survival rate and swimming behavior beyond 25 dpf” value is, setting by setting: (Regimen I: 0.4 uM ART from 3 to 7 dpf) 40%; (Regimen II: 0.4 uM ART from 3 to 12 dpf) 45%.
